Laboratory results from US20240216355A1, “PHARMACEUTICAL COMPOSITIONS FOR USE IN THE PREVENTION AND TREATMENT OF A DISEASE OR DISORDER CAUSED BY OR ASSOCIATED WITH ONE OR MORE PREMATURE TERMINATION CODONS” (Monte Rosa Therapeutics, Inc., priority 2021, published 2024).
Like-named read-outs stand apart in the source and are kept apart here.

Tests used:
[1] = biological target: T1, Full length wild-type cereblon CRBN (Homo sapiens, UniProt Q96SW2); test: Fluorescence polarization (FP) assay indicating cereblon binding
T1 construct: Full length wild-type cereblon CRBN (80.0 nM, 10 μL) was incubated in assay buffer
Method: Compound activity was monitored in a fluorescence polarization (FP) homogeneous assay using 1-[5-({2-[2-(2-{[2-(2,6-dioxopiperidin-3-yl)-1,3-dioxo-2,3-dihydro-1H-isoindol-4-yl]oxy}acetamido)ethoxy]ethyl}carbamoyl)pentyl]-3,3-dimethyl-2-[(1E,3E)-5-[(2E)-1,3,3-trimethyl-5-sulfo-2,3-dihydro-1H-indol-2-ylidene]penta-1,3-dien-1-yl]-3H-indol-1-ium-5-sulfonate as a fluorescent probe. Unless otherwise stated, all reagents were purchased from Sigma Aldrich. Enzymatic reactions were conducted in Perkin-Elmer Black 384 well ProxiPlate Plus (catalogue no. 6008269) in 10 μL total volume. Full length wild-type cereblon CRBN (80.0 nM, 10 μL) was incubated in assay buffer containing 20 mM HEPES (pH 8.0), […], 0.5 mM TCEP and 0.05% Tween 20 in the presence or absence of compound (300 nL). Inhibitors were stored as 10 mM DMSO stocks in an inert environment (low humidity, dark, low oxygen, room temperature) using the Storage Pod System. Compounds and DMSO were dispensed using the Echo E5XX (Labcyte Inc. USA) to give concentrations from 300 to 0.937 or 3000 to 9.3 nM in a 12 data point curve. […] Following incubation at room temperature for 30 min, the assay was initiated by dispensing the probe to a final concentration of 5 nM (2.5 nL of a 20 μM stock) using the Echo E5XX. FP was measured after a period of 12 hours using a Pherastar plate reader (BMG Labtech, Germany) exciting at 590 nm and measuring the amount of parallel and perpendicular light at 675 nm. The FP signal was subsequently normalized to the no-compound control (i.e., DMSO). Analysis and IC50 values were derived using Dotmatics (Dotmatics UK) software.

GSPT1 = biological target: T2, GSPT1 (Homo sapiens, UniProt P15170+Q96SW2); test: GSPT1 degradation immunofluorescence assay in CAL-51 cells; type: cell-based; conditions: 6 hours treatment
T2 construct: CAL-51 cells were purchased from DSMZ (cat. Number ACC302); host or cells: CAL-51 cells
Method: CAL-51 cells were purchased from DSMZ (cat. Number ACC302), sub-cultured in 90% Dulbecco's MEM (4.5 g/L glucose, Gibco 11965)+10% heat inactivated FBS (BioConcept, 2-01F1361) and incubated at 37° C., 5% CO2. For the assay, imaging microtiterplate Cell Carrier 96 Ultra (Perkin Elmer 6055302) were pre-coated with Fibronectin (Sigma F085, 30 μl at 0.2 μg/ml) in PBS (100p, Gibco 14190) for 45 min at room temperature, rinsed with PBS and CAL-51 cells (30K cells/well) were plated and let to adhere overnight. Cells were treated with compounds typically using a serial dilution ranging from 30 μM to 0.1 nM for 6 hours. Compounds were stored at 10 mM DMSO stocks. Vehicle (DMSO), positive (CC-885, 10 μM) and rescue controls (positive control plus 0.2 μM bortezomib) were also included at this stage. Cells were subsequently rinsed with PBS and fixed in 10% Formalin solution (50p, Sigma HT5011)) for 20 mins at room temperature. Following three consecutive PBS washes (100 μl), cells were permeabilized in 0.1% Triton X-100 in PBS (Sigma 93443, 50 μl) for 15 mins at room temperature. Following three further PBS washes, 50 μl blocking buffer (1% BSA, Sigma A4503, in PBS) was added for 45 min for signal-to-noise reduction. Primary antibody (human GSPT1, Sigma HPA052488) was diluted in blocking buffer (dil.1/300, 35 μl/well) and incubated with the cells overnight at 4° C. After three PBS washes, Alexa-fluor 488 coupled secondary antibodies (Invitrogen, A32731, dil. 1/1000), Alexa-fluor 647-Phalloïdin (Invitrogen, A22287, dil. 1/200) and DAPI (Thermo, #62248, dil.1/1000) were diluted in blocking buffer and incubated with the samples for 2 hours at room temperature. After three final PBS washes, samples were conserved in 100 μl PBS in the dark, until measurement. Image acquisition was performed on the Operetta High-Content Imager (Perkin-Elmer). Fluorescence intensity of Alexa-Fluor 488 (GSPT1), Alexa-Fluor 647 (Actin) and DAPI (Nucleus) were measured. For the determination of GSPT1 DC50 values, a custom algorithm implemented in the PerkinElmer image analysis software Harmony-Acapella@ was developed. After user-defined setting of adjustment parameters, the analysis was run identically without human intervention for all image fields. DAPI staining of the nuclei was used to determine the location of cells using standard nuclei detection modules. Segmentation artifacts were removed by threshold-based filters for area, roundness and intensity. The outline of the cells was determined analogously from the sum of the normalized, smoothed DAPI and Actin channel, starting from each nucleus.
The Alexa-Fluor 488 (GSPT1) signal intensity in each cell was finally measured, in order to obtain a Mean intensity per cell. GSPT1 degradation (DC50) was calculated after normalization to controls and data import in CDD vault Database, using non-linear regression.

HBE16 cells = test: Killing activity (EC10) in HBE16 cells after 72 hr; type: cell-based, human
[2] = system: G542X cystic fibrosis transmembrane conductance regulator (CFTR) nonsense mutation; test: HaloTag G542X 5×5 NanoLuc reporter assay (CFTR readthrough) in HBE16 cells; type: cell-based, human
Method: FIG. 3A, FIG. 3B, and FIG. 3C show the effect of a representative compound of the disclosure on CFTR readthrough: Readthrough of the common G542X cystic fibrosis transmembrane conductance regulator (CFTR) nonsense mutation was carried out in the immortalized human bronchial epithelial cells HBE16. A HaloTag G542X 5×5 NanoLuc reporter assay was established in that cell line containing the CFTR readthrough cassette bearing the G542X codon as well as 5 codons upstream and downstream from the human CFTR sequence. […] The total protein assay (C) indicates no significant decrease of HBE16 cell viability following treated with the representative compound of the disclosure alone or in combination with G418 (y-axis left indicating protein μg/μL, and y-axis right indicating %).
The total protein assay (C) indicates no significant decrease of HBE16 cell viability following treated with the representative compound of the disclosure alone or in combination with ELX-02 (y-axis left indicating protein μg/μL, and y-axis right indicating %).

[3] = compounds 201 to 307, read-out: Activity for GSPT1 degradation (DC50 code)
[4] = compounds 1 to 165, read-out: Activity for GSPT1 degradation (DC50 code)

T1 sequence (Q96SW2 whole entry): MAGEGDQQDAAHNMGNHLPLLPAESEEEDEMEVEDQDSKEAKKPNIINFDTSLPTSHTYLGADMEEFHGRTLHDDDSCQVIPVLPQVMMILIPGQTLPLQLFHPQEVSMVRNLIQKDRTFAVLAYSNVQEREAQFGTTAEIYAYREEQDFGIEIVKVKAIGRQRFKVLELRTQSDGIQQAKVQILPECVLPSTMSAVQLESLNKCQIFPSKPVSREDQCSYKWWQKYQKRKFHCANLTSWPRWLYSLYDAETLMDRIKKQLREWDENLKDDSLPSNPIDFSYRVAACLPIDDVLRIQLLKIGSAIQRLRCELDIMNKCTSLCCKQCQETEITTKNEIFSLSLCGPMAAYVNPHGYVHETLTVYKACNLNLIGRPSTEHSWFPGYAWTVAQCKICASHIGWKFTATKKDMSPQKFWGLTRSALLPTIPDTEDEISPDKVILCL
T2 sequence (P15170 whole entry): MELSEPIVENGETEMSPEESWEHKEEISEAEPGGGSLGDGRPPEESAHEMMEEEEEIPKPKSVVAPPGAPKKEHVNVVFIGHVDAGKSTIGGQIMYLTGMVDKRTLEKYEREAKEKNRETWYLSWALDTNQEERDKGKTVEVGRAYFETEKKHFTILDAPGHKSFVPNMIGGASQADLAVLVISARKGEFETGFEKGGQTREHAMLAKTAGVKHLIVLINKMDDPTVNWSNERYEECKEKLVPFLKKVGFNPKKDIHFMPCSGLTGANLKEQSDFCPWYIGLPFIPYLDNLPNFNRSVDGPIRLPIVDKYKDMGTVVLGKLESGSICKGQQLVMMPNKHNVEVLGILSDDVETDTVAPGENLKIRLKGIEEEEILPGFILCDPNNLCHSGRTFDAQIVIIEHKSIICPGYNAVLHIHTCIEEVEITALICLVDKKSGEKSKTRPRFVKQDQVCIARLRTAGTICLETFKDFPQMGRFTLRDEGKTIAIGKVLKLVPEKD
T2 sequence (Q96SW2 whole entry): as the sequence (Q96SW2 whole entry) above
T2 sequence (Q16531 whole entry partner): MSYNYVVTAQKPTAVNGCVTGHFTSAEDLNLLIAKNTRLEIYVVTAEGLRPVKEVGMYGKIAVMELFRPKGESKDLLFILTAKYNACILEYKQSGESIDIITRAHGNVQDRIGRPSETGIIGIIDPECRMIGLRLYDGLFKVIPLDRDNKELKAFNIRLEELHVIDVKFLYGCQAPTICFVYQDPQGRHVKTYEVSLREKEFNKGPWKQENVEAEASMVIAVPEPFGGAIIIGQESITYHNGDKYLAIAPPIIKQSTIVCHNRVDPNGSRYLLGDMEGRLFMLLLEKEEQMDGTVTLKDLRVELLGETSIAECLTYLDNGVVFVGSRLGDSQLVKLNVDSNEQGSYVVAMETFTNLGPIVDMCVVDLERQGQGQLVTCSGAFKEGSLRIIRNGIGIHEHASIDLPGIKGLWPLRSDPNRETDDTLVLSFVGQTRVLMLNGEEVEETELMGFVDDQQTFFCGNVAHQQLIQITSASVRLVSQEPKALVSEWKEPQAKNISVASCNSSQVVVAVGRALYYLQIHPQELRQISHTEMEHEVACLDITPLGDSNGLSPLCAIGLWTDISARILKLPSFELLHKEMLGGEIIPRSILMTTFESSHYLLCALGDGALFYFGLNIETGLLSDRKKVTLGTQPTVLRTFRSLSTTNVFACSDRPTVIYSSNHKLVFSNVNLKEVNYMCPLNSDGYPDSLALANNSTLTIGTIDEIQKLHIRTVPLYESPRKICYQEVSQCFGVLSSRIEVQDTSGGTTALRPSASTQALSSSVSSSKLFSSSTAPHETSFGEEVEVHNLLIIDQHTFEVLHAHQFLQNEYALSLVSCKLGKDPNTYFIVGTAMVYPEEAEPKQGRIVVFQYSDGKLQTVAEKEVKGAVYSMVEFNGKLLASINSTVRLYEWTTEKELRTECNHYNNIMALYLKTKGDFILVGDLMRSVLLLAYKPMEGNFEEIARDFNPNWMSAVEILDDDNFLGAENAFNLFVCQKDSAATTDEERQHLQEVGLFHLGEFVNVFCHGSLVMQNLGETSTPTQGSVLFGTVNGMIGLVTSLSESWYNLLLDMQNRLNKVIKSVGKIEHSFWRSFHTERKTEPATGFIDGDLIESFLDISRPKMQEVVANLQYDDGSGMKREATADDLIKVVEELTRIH

Row | SMILES | IC50 [1] | DC50 (GSPT1; [3]) | other results
1 | Cc1c(CN2CCOCC2)cc(NC(=O)OCc2ccc3c(c2)C(=O)N(C2CCC(=O)NC2=O)C3)cc1OC(F)F (stereo not shown) [Compound 225] | < 1100 nM | < 30 nM | 
2 | O=C1CCC(N2Cc3ccc(COC(=O)Nc4ccc(N5CCCCC5)nc4)cc3C2=O)C(=O)N1 (stereo not shown) [Compound 215] | < 1100 nM | < 30 nM | 
3 | O=C1CCC(N2Cc3ccc(COC(=O)Nc4ccc(C5CC5)cc4)cc3C2=O)C(=O)N1 (stereo not shown) [Compound 239] | < 1100 nM | < 30 nM | 
4 | CC1CCCCN1c1ccc(NC(=O)OCc2ccc3c(c2)C(=O)N(C2CCC(=O)NC2=O)C3)cn1 (stereo not shown) [Compound 277] | < 1100 nM | < 30 nM | 
5 | Cc1c(Cl)cc(NC(=O)OCc2ccc3c(c2)C(=O)N(C2CCC(=O)NC2=O)C3)cc1OC1CCN(C)C1 (stereo not shown) [Compound 268] | < 1100 nM | < 30 nM | 
6 | Cc1ncc(NC(=O)OCc2ccc3c(c2)C(=O)N(C2CCC(=O)NC2=O)C3)cc1Cl (stereo not shown) [Compound 206] | < 1100 nM | < 30 nM | 
7 | CC1(c2ccc(NC(=O)OCc3ccc4c(c3)C(=O)N(C3CCC(=O)NC3=O)C4)cc2)CC1 (stereo not shown) [Compound 258] | < 1100 nM | < 30 nM | 
8 | Cc1ccc(NC(=O)OCc2ccc3c(c2)C(=O)N(C2CCC(=O)NC2=O)C3)cc1OC(F)F (stereo not shown) [Compound 224] | < 1100 nM | < 30 nM | 
9 | COc1ccccc1-c1ccc(NC(=O)OCc2ccc3c(c2)C(=O)N(C2CCC(=O)NC2=O)C3)cn1 (stereo not shown) [Compound 287] | < 1100 nM | < 30 nM | 
10 | Cc1c(Cl)cc(NC(=O)NCc2ccc3c(c2)C(=O)N(C2CCC(=O)NC2=O)C3)cc1CC1COCCN1C (stereo not shown) [Compound 160] | < 1100 nM |  | DC50 (GSPT1; [4]): ≤ 100 nM
11 | O=C1CCC(N2Cc3ccc(COC(=O)Nc4cc(CN5CCOCC5)cc(OC(F)(F)F)c4)cc3C2=O)C(=O)N1 (stereo not shown) [Compound 204] | < 1100 nM | < 30 nM | 
12 | C[C@@H](N)[C@H]1O[C@@H](O[C@@H]2[C@@H](O)[C@H](N)C[C@H](N)[C@H]2O[C@H]2O[C@H]([C@@H](C)O)[C@@H](O)[C@H](O)[C@H]2N)[C@H](O)[C@@H]1O [ELX-02] |  |  | EC10 (concentration resulting in 10% killing activity) (HBE16 cells): 85000 nM; EC50 [2]: 250000 nM; EC10 (readthrough activity, NanoLuc) ([2]; concentration used in combination): 85000 nM
13 | Cc1c(Cl)cc(NC(=O)OCc2ccc3c(c2)C(=O)N(C2CCC(=O)NC2=O)C3)cc1CN1CCOCC1 (stereo not shown) [Compound 202] | < 1100 nM | < 30 nM | 
14 | Cc1c(Cl)cc(NC(=O)OCc2ccc3c(c2)C(=O)N(C2CCC(=O)NC2=O)C3)cc1CN1CC2CC1CO2 (stereo not shown) [Compound 213] | < 1100 nM | < 30 nM | 
15 | COc1ccc(CCNC(=O)NCc2ccc3c(c2)C(=O)N(C2CCC(=O)NC2=O)C3)cc1 (stereo not shown) [Compound 51] | < 1100 nM |  | DC50 (GSPT1; [4]): > 300 nM
16 | COc1ccccc1CNC(=O)NCc1ccc2c(c1)C(=O)N(C1CCC(=O)NC1=O)C2 (stereo not shown) [Compound 60] | < 1100 nM |  | DC50 (GSPT1; [4]): > 300 nM
17 | CCc1cc(NC(=O)OCc2ccc3c(c2)C(=O)N(C2CCC(=O)NC2=O)C3)cnc1C (stereo not shown) [Compound 255] | < 1100 nM | < 30 nM | 
18 | Cc1c(Cl)cc(NC(=O)NCc2ccc3c(c2)C(=O)N(C2CCC(=O)NC2=O)C3)cc1CN1CC2CCC(C1)O2 (stereo not shown) [Compound 140] | < 1100 nM |  | DC50 (GSPT1; [4]): ≤ 100 nM
19 | Cc1ccccc1-c1ccc(NC(=O)OCc2ccc3c(c2)C(=O)N(C2CCC(=O)NC2=O)C3)cn1 (stereo not shown) [Compound 286] | < 1100 nM | < 30 nM | 
20 | Cc1cc(NC(=O)OCc2ccc3c(c2)C(=O)N(C2CCC(=O)NC2=O)C3)cnc1-c1ccccc1 (stereo not shown) [Compound 288] | < 1100 nM | < 30 nM | 
21 | Cc1cc(C)cc(NC(=O)OCc2ccc3c(c2)C(=O)N(C2CCC(=O)NC2=O)C3)c1 (stereo not shown) [Compound 208] | < 1100 nM | < 30 nM | 
22 | CC1(C)COc2cc(NC(=O)OCc3ccc4c(c3)C(=O)N(C3CCC(=O)NC3=O)C4)ccc21 (stereo not shown) [Compound 283] | < 1100 nM | < 30 nM | 
23 | Cc1c(F)cc(NC(=O)OCc2ccc3c(c2)C(=O)N(C2CCC(=O)NC2=O)C3)cc1CN1CCOCC1 (stereo not shown) [Compound 241] | < 1100 nM | < 30 nM | 
24 | Cc1ncc(NC(=O)OCc2ccc3c(c2)C(=O)N(C2CCC(=O)NC2=O)C3)cc1OC(F)(F)F (stereo not shown) [Compound 291] | < 1100 nM | < 30 nM | 
